Experimental data from patent US20240358693A1, “METHODS OF TREATING PAIN” (Aisa Pharma, Inc., priority 2023, published 2024).

Test system: participants with SSc-RP
Assay: Frequency of weekly RP attacks (all attacks; primary efficacy endpoint)
Format: in vivo, human
Details: for Weekly RP Attacks, Q3 / Weekly RP Attacks Change from Baseline, Max / Weekly RP Attacks Change from Baseline, Mean / Weekly RP Attacks Change from Baseline, Median / Weekly RP Attacks Change from Baseline, Min / Weekly RP Attacks Change from Baseline, Q1 / Weekly RP Attacks Change from Baseline, Q3 / Weekly RP Attacks Percent Change from Baseline, Max / Weekly RP Attacks Percent Change from Baseline, Mean / Weekly RP Attacks Percent Change from Baseline, Median / Weekly RP Attacks Percent Change from Baseline, Min / Weekly RP Attacks Percent Change from Baseline, Q1 / Weekly RP Attacks Percent Change from Baseline, Q3 / Weekly RP Attacks, Max / Weekly RP Attacks, Mean / Weekly RP Attacks, Median / Weekly RP Attacks, Min / Weekly RP Attacks, Q1 / Weekly RP Attacks Change from Baseline, Mean (SD) / Weekly RP Attacks Percent Change from Baseline, Mean (SD) / Weekly RP Attacks, Mean (SD): all attacks, tadalafil 5 mg daily
Description: Percent change from baseline evaluation for frequency of weekly RP attacks were or will be used as the primary efficacy variable. The sponsor-developed participant-informed diary will be used to record data. Frequency of weekly RP attacks is defined as the total number of RP attacks divided by the number of days with available diary data within the last 7 days of each dosing period then multiplied by 7. Total number of RP attacks during the last 7 days of screening period divided by the number of days with available data then multiplied by 7 will be used as baseline for the analysis of all periods. The variable will be calculated as follows:
Percentage change={(weekly RP attacks for the last 7 days of each dosing period−Baseline weekly RP attacks)/Baseline weekly RP attacks}*100%.
Absolute change=weekly RP attacks for the last 7 days of each dosing period−Baseline weekly RP attacks
Percent change from baseline evaluation for frequency of weekly RP attacks was and will be the primary efficacy endpoint. Frequency of weekly RP attacks is defined as the total number of RP attacks divided by the number of days with available diary data within the last 7 days of each dosing period then multiplied by 7. Total number of RP attacks during the last 7 days of screening period divided by the number of days with available data then multiplied by 7 will be used as baseline for the analysis of all periods.
Percent change from baseline evaluation for frequency of weekly RP attacks were the primary efficacy endpoint. Data collected in the last 7 days of each dosing period were used for this analysis. Screening assessments were used as baseline for the analysis of all periods. No multiple comparison adjustment were used to control alpha for the multiple comparisons. Mixed effects model were used for analysis of the primary endpoint according to the crossover design. Other efficacy endpoints of continuous variables were analyzed using similar methodology. For nominal data, chi-square tests were applied. Generalized Estimating Equations method were used, as appropriate, for adjusting for potential confounding factors. In addition, the final analysis assessed whether in this study of severe Raynaud's disease participants, the minimally important difference, previously concluded of 14-15 points on the 100 point RCS scale had been achieved in the cilnidipine dose group. It also recorded the percentage of participants achieving a PASS (34 point difference from baseline on a 0-100 VAS) in each treatment group.

[1] = by baseline RCS, first subgroup, cilnidipine 10 mg
[2] = by baseline RCS, first subgroup, cilnidipine 20 mg
[3] = by baseline RCS, first subgroup, pooled cilnidipine 10 mg and 20 mg
[4] = pooled cilnidipine 10 mg and 20 mg

COCCOC(=O)C1=C(C)NC(C)=C(C(=O)OC/C=C/c2ccccc2)C1c1cccc([N+](=O)[O-])c1 (stereo not shown) [Cilnidipine, cilnidipine]
Weekly RP Attacks, Q3 (excluding outliers, pooled cilnidipine 10 mg and 20 mg): 23.00
Weekly RP Attacks Change from Baseline, Max [1]: −9.0, −9.0
Weekly RP Attacks Change from Baseline, Mean [1]: −9.00
Weekly RP Attacks Change from Baseline, Median [1]: −9.00
Weekly RP Attacks Change from Baseline, Min [1]: −9.0, −9.0
Weekly RP Attacks Change from Baseline, Q1 [1]: −9.00, −9.00
Weekly RP Attacks Change from Baseline, Q3 [1]: −9.00, −9.00
Weekly RP Attacks Percent Change from Baseline, Max [1]: −28.1, −28.1%
Weekly RP Attacks Percent Change from Baseline, Mean [1]: −28.13%
Weekly RP Attacks Percent Change from Baseline, Median [1]: −28.13%
Weekly RP Attacks Percent Change from Baseline, Min [1]: −28.1, −28.1%
Weekly RP Attacks Percent Change from Baseline, Q1 [1]: −28.13, −28.13%
Weekly RP Attacks Percent Change from Baseline, Q3 [1]: −28.13, −28.13%
Weekly RP Attacks, Max [1]: 23.0, 23.0
Weekly RP Attacks, Mean [1]: 23.00
Weekly RP Attacks, Median [1]: 23.00
Weekly RP Attacks, Min [1]: 23.0, 23.0
Weekly RP Attacks, Q1 [1]: 23.00, 23.00
Weekly RP Attacks, Q3 [1]: 23.00, 23.00
Weekly RP Attacks Change from Baseline, Max [2]: −4.3
Weekly RP Attacks Change from Baseline, Mean [2]: −6.67
Weekly RP Attacks Change from Baseline, Median [2]: −6.67
Weekly RP Attacks Change from Baseline, Min [2]: −9.0
Weekly RP Attacks Change from Baseline, Q1 [2]: −9.00
Weekly RP Attacks Change from Baseline, Q3 [2]: −4.33
Weekly RP Attacks Percent Change from Baseline, Max [2]: −45.0%
Weekly RP Attacks Percent Change from Baseline, Mean [2]: −45.71%
Weekly RP Attacks Percent Change from Baseline, Median [2]: −45.71%
Weekly RP Attacks Percent Change from Baseline, Min [2]: −46.4%
Weekly RP Attacks Percent Change from Baseline, Q1 [2]: −46.43%
Weekly RP Attacks Percent Change from Baseline, Q3 [2]: −45.00%
Weekly RP Attacks, Max [2]: 11.0
Weekly RP Attacks, Mean [2]: 8.00
Weekly RP Attacks, Median [2]: 8.00
Weekly RP Attacks, Min [2]: 5.0
Weekly RP Attacks, Q1 [2]: 5.00
Weekly RP Attacks, Q3 [2]: 11.00
Weekly RP Attacks Change from Baseline, Max [3]: −4.3
Weekly RP Attacks Change from Baseline, Mean [3]: −7.44
Weekly RP Attacks Change from Baseline, Median [3]: −9.00
Weekly RP Attacks Change from Baseline, Min [3]: −9.0
Weekly RP Attacks Change from Baseline, Q1 [3]: −9.00
Weekly RP Attacks Change from Baseline, Q3 [3]: −4.33
Weekly RP Attacks Percent Change from Baseline, Max [3]: −28.1%
Weekly RP Attacks Percent Change from Baseline, Mean [3]: −39.85%
Weekly RP Attacks Percent Change from Baseline, Median [3]: −45.00%
Weekly RP Attacks Percent Change from Baseline, Min [3]: −46.4%
Weekly RP Attacks Percent Change from Baseline, Q1 [3]: −46.43%
Weekly RP Attacks Percent Change from Baseline, Q3 [3]: −28.13%
Weekly RP Attacks, Max [3]: 23.0
Weekly RP Attacks, Mean [3]: 13.00
Weekly RP Attacks, Median [3]: 11.00
Weekly RP Attacks, Min [3]: 5.0
Weekly RP Attacks, Q1 [3]: 5.00
Weekly RP Attacks, Q3 [3]: 23.00
Weekly RP Attacks Change from Baseline, Max (cilnidipine 10 mg): −9.0, −9.0
Weekly RP Attacks Change from Baseline, Mean (SD) (cilnidipine 10 mg): −9.00
Weekly RP Attacks Change from Baseline, Median (cilnidipine 10 mg): −9.00
Weekly RP Attacks Change from Baseline, Min (cilnidipine 10 mg): −9.0, −9.0
Weekly RP Attacks Change from Baseline, Q1 (cilnidipine 10 mg): −9.00, −9.00
Weekly RP Attacks Change from Baseline, Q3 (cilnidipine 10 mg): −9.00, −9.00
Weekly RP Attacks Percent Change from Baseline, Max (cilnidipine 10 mg): −28.1, −28.1%
Weekly RP Attacks Percent Change from Baseline, Mean (SD) (cilnidipine 10 mg): −28.13%
Weekly RP Attacks Percent Change from Baseline, Median (cilnidipine 10 mg): −28.13%
Weekly RP Attacks Percent Change from Baseline, Min (cilnidipine 10 mg): −28.1, −28.1%
Weekly RP Attacks Percent Change from Baseline, Q1 (cilnidipine 10 mg): −28.13, −28.13%
Weekly RP Attacks Percent Change from Baseline, Q3 (cilnidipine 10 mg): −28.13, −28.13%
Weekly RP Attacks, Max (cilnidipine 10 mg): 23.0, 23.0
Weekly RP Attacks, Mean (SD) (cilnidipine 10 mg): 23.00
Weekly RP Attacks, Median (cilnidipine 10 mg): 23.00
Weekly RP Attacks, Min (cilnidipine 10 mg): 23.0, 23.0
Weekly RP Attacks, Q1 (cilnidipine 10 mg): 23.00, 23.00
Weekly RP Attacks, Q3 (cilnidipine 10 mg): 23.00, 23.00
Weekly RP Attacks Change from Baseline, Max (cilnidipine 20 mg): −4.3
Weekly RP Attacks Change from Baseline, Mean (SD) (cilnidipine 20 mg): −6.67 (3.300)
Weekly RP Attacks Change from Baseline, Median (cilnidipine 20 mg): −6.67
Weekly RP Attacks Change from Baseline, Min (cilnidipine 20 mg): −9.0
Weekly RP Attacks Change from Baseline, Q1 (cilnidipine 20 mg): −9.00
Weekly RP Attacks Change from Baseline, Q3 (cilnidipine 20 mg): −4.33
Weekly RP Attacks Percent Change from Baseline, Max (cilnidipine 20 mg): −45.0%
Weekly RP Attacks Percent Change from Baseline, Mean (SD) (cilnidipine 20 mg): −45.71 (1.010) Percent
Weekly RP Attacks Percent Change from Baseline, Median (cilnidipine 20 mg): −45.71%
Weekly RP Attacks Percent Change from Baseline, Min (cilnidipine 20 mg): −46.4%
Weekly RP Attacks Percent Change from Baseline, Q1 (cilnidipine 20 mg): −46.43%
Weekly RP Attacks Percent Change from Baseline, Q3 (cilnidipine 20 mg): −45.00%
Weekly RP Attacks, Max (cilnidipine 20 mg): 11.0
Weekly RP Attacks, Mean (SD) (cilnidipine 20 mg): 8.00 (4.243)
Weekly RP Attacks, Median (cilnidipine 20 mg): 8.00
Weekly RP Attacks, Min (cilnidipine 20 mg): 5.0
Weekly RP Attacks, Q1 (cilnidipine 20 mg): 5.00
Weekly RP Attacks, Q3 (cilnidipine 20 mg): 11.00
Weekly RP Attacks Change from Baseline, Max [4]: −4.3
Weekly RP Attacks Change from Baseline, Mean (SD) [4]: −7.44 (2.694)
Weekly RP Attacks Change from Baseline, Median [4]: −9.00
Weekly RP Attacks Change from Baseline, Min [4]: −9.0
Weekly RP Attacks Change from Baseline, Q1 [4]: −9.00
Weekly RP Attacks Change from Baseline, Q3 [4]: −4.33
Weekly RP Attacks Percent Change from Baseline, Max [4]: −28.1%
Weekly RP Attacks Percent Change from Baseline, Mean (SD) [4]: −39.85 (10.180) Percent
Weekly RP Attacks Percent Change from Baseline, Median [4]: −45.00%
Weekly RP Attacks Percent Change from Baseline, Min [4]: −46.4%
Weekly RP Attacks Percent Change from Baseline, Q1 [4]: −46.43%
Weekly RP Attacks Percent Change from Baseline, Q3 [4]: −28.13%
Weekly RP Attacks, Max [4]: 23.0
Weekly RP Attacks, Mean (SD) [4]: 13.00 (9.165)
Weekly RP Attacks, Median [4]: 11.00
Weekly RP Attacks, Min [4]: 5.0
Weekly RP Attacks, Q1 [4]: 5.00
Weekly RP Attacks, Q3 [4]: 23.00
reduction in weekly attack frequency (primary endpoint) (cilnidipine 20 mg, 19% with placebo): 43%
reduction in weekly attack frequency, typical attacks (pooled cilnidipine monotherapy or cilnidipine plus tadalafil treated patients (n=7)): −31 to −40%
Attacks reduced (summary of data (Table S)): 43%_vs 23% with
